Read-outs that look alike come from different tables or passages of the source.
Tests used:
[1] = system: Zucker fa/fa male rats; assay: Zucker fa/fa Rat Model Assay; assay type: in vivo; conditions: po, 120 h, 10 mg/kg orally once a day for 4 days
Text: Zucker fa/fa is a monogenic model of frank diabetes due to a mutation on the fa gene truncating the leptin receptor and preventing its interaction with its peptide hormone. This mutation results in a hyperphagic phenotype and the rodent develops obesity, hyperlipidemia, fasting hyperglycemia and insulin resistance. Zucker fa/fa male rats were received at four weeks of age and allowed to acclimate for one week. At five weeks of age the animals were single housed in cages in a temperature-controlled room with 12-hour light/dark cycle. The rats were allowed ad libitum access to water and food and throughout the study were maintained on a Purina 5008 diet. Animals were sorted based primarily on fed insulin levels and circulating triglycerides. Animals were dosed orally once a day (10 mg/kg) in the morning for 4 days. The vehicle used was either 20% HPβCD (Hydroxypropyl Beta Cyclodextrin) or 15% Vitamin E/30% PEG-400 (Polyethylene Glycol 400). Fed insulin and triglycerides were measured using blood collected from the tail vein at day 5. Serum plasma samples were prepared by centrifugation in EDTA (Ethylenediaminetetraacetic acid) containing tubes, transferred into 96 well plates and stored at −80° C.

[2] = biological target: T1, ERR1 (also known as ERR-α or ERR-1) (Homo sapiens, UniProt P11474); assay: TR-FRET assay (disruption of co-activator peptide binding to ERR1 LBD); assay type: biochemical; conditions: 6 nM 6His-ERR1LBD, 6 nM GST-SRC-2 peptide; average of 3 independent experiments
T1 sequence (P11474 193-421 limits assumed): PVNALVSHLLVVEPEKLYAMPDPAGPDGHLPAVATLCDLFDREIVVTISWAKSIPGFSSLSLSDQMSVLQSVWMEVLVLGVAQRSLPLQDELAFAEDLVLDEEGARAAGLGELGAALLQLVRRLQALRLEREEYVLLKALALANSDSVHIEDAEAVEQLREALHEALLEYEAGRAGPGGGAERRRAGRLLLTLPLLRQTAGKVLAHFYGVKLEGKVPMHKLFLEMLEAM
In short: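 Homogeneous TR-FRET measuring displacement of GST-hSRC2 co-activator peptide (6 nM) from His-tagged ERR1 LBD (6 nM), detected with α-GST Eu cryptate (30 nM) and α-His-XL665 (7.5 nM). Buffer 25 mM Tris pH 8, 2.5 mM Hepes, 20 mM KCl, 1 mM DTT, 0.05 mg/mL delipidated BSA; equilibration 4-18 h at 25° C. Hyperbolic dose-response fit, mean of 3 experiments.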

[3] = blood from tail vein at day 5, read-out: % Change Fed Insulin Levels
[4] = blood from tail vein at day 5, read-out: % Change Fed Triglyceride Levels

Row | EC50 [2] | SMILES | change in vivo at 10 mg/kg [1, 3] | change in vivo at 10 mg/kg [1, 4]
1 | 26 nM | CS(=O)(=O)CCN1CCC(N2C(=O)S/C(=C\c3ccc4c(cnn4Cc4ccc(Cl)cc4C(F)(F)F)c3)C2=O)CC1 [Compound 149, (5Z)-5-({1-[4-Chloro-2-(trifluoromethyl)benzyl]-1H-indazol-5-yl}methylidene)-3-{1-[2-(methylsulfonyl)ethyl]piperidin-4-yl}-1,3-thiazolidine-2,4-dione] | -35% | 10%
2 | 58 nM | CN1CC[C@@H](N2C(=O)S/C(=C\c3ccc4c(cnn4Cc4ccc(Cl)cc4C(F)(F)F)c3)C2=O)[C@H](F)C1 (relative stereo) [Compound 277, (5Z)-5-({1-[4-Chloro-2-(trifluoromethyl)benzyl]-1H-indazol-5-yl}methylidene)-3-(trans-3-fluoro-1-methylpiperidin-4-yl)-1,3-thiazolidine-2,4-dione] | -73% | -57%
3 | 25 nM | O=C(CN1C(=O)S/C(=C\c2ccc3c(cnn3Cc3ccc(Cl)cc3C(F)(F)F)c2)C1=O)NS(=O)(=O)N1CCCC1 [Compound 38, 2-[(5Z)-5-({1-[4-Chloro-2-(trifluoromethyl)benzyl]-1H-indazol-5-yl}methylidene)-2,4-dioxo-1,3-thiazolidin-3-yl]-N-(pyrrolidin-1-ylsulfonyl)acetamide] | -47% | 1%
4 | 54 nM | Cc1nn(Cc2ccc(Cl)cc2C(F)(F)F)c2ccc(/C=C3\SC(=O)N(CC(=O)NS(=O)(=O)N4CCCC4)C3=O)cc12 [Compound 40, 2-[(5Z)-5-({1-[4-Chloro-2-(trifluoromethyl)benzyl]-3-methyl-1H-indazol-5-yl}methylidene)-2,4-dioxo-1,3-thiazolidin-3-yl]-N-(pyrrolidin-1-ylsulfonyl)acetamide] | -10% | -23%
5 | 25 nM | CN1CC[C@H](N2C(=O)S/C(=C\c3ccc4c(cnn4Cc4ccc(Cl)cc4C(F)(F)F)c3)C2=O)C1 [Compound 143, (5Z)-5-({1-[4-Chloro-2-(trifluoromethyl)benzyl]-1H-indazol-5-yl}methylidene)-3-[(3S)-1-methylpyrrolidin-3-yl]-1,3-thiazolidine-2,4-dione] | -49% | -29%
6 | 16 nM | O=C(O)CN1CCC(N2C(=O)S/C(=C\c3ccc4c(cnn4Cc4ccc(Cl)cc4C(F)(F)F)c3)C2=O)CC1 [Compound 146, {4-[(5Z)-5-({1-[4-Chloro-2-(trifluoromethyl)benzyl]-1H-indazol-5-yl}methylidene)-2,4-dioxo-1,3-thiazolidin-3-yl]piperidin-1-yl}acetic acid] | -26% | -14%
7 | 58 nM | N=C(N)NOCCN1C(=O)S/C(=C\c2ccc3c(cnn3Cc3ccc(Cl)cc3C(F)(F)F)c2)C1=O [Compound 91, 1-{2-[(5Z)-5-({1-[4-Chloro-2-(trifluoromethyl)benzyl]-1H-indazol-5-yl}methylidene)-2,4-dioxo-1,3-thiazolidin-3-yl]ethoxy}guanidine] | -68% | -60%

From US8796256B2 (Janssen Pharmaceutica NV, priority 2010, dated 2014)
